Test [1] deals with Sodium-dependent dopamine transporter (Homo sapiens, UniProt Q01959).
Test [2] addresses Glutamate receptor ionotropic, NMDA 1 (Rattus norvegicus, UniProt P35439).
Test [3] has as its target T1, Type-1 angiotensin II receptor (Homo sapiens, UniProt P30556).
T1 sequence (P30556 whole entry): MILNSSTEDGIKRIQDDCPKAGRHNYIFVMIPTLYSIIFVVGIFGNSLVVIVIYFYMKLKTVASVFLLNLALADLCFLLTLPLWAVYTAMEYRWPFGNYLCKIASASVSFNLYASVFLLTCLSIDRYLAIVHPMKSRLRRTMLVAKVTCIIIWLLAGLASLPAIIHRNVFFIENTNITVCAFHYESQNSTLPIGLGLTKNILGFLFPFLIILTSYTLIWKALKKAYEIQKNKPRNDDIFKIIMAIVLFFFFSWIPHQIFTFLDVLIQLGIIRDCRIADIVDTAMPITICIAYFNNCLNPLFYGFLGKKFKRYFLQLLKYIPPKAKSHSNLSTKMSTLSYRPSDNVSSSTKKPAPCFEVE

For a further test, the target named is Vasopressin V2 receptor (Homo sapiens, UniProt P30518).
Test [4] addresses Delta-type opioid receptor (Homo sapiens, UniProt P41143).
The target in test [5] is T2, Cholecystokinin receptor type A (Homo sapiens, UniProt P32238).
T2 sequence (P32238 whole entry): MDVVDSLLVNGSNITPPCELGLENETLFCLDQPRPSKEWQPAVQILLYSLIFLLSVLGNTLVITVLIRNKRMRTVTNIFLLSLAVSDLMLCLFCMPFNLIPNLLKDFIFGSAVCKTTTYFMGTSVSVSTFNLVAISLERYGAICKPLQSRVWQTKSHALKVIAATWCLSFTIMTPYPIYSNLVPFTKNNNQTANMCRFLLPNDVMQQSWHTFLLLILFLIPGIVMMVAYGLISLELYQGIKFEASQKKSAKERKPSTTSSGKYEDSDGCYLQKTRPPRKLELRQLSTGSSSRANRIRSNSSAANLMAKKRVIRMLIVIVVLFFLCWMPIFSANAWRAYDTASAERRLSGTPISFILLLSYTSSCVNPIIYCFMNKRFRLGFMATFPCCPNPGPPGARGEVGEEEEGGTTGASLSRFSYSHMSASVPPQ

Test [6] concerns the target T3, Muscarinic acetylcholine receptor M1 (Homo sapiens, UniProt P11229).
T3 sequence (P11229 whole entry): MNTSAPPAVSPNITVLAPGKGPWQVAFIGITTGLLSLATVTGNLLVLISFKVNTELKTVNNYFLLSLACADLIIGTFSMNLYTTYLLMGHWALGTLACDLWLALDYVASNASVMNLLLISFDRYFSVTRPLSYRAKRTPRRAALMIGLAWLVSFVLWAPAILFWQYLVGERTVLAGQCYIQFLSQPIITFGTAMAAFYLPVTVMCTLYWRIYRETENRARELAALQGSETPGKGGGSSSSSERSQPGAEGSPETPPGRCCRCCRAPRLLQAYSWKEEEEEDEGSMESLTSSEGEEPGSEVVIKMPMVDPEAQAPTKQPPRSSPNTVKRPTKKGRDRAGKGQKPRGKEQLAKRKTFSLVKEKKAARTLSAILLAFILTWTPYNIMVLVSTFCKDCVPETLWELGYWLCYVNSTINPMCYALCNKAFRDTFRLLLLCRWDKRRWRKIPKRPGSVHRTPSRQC
The format is functional, cell-based.

A further test addresses Motilin receptor (Homo sapiens, UniProt O43193).
Test [7] deals with T4, Gamma-aminobutyric acid receptor subunit alpha-1 (Rattus norvegicus, UniProt P62813).
The target in test [8] is T4, Gamma-aminobutyric acid receptor subunit alpha-1. The source holds these as a separate data set.
A further test concerns the target T5, Thromboxane A2 receptor (Homo sapiens, UniProt P21731).
T5 sequence (P21731 whole entry): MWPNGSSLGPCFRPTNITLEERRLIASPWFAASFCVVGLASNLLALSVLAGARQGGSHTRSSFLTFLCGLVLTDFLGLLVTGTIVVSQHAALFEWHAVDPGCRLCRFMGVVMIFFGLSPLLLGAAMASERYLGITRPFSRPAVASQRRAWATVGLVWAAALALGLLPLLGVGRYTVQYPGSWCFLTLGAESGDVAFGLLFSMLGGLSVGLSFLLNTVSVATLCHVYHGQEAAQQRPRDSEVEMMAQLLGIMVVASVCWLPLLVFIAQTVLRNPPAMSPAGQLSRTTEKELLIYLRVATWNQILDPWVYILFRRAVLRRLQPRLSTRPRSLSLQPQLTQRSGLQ

For test [9], the target named is T3, Muscarinic acetylcholine receptor M1. It counts as functional, cell-based. This is another data set of the same source.

Consider one molecule from ChEMBL document CHEMBL5291721, “A preclinical secondary pharmacology resource illuminates target-adverse drug reaction associations of marketed drugs” (Nat Commun, 2023).

Molecules are shown by their SMILES.
Note: assay procedure not described here.

T4 sequence (P62813 whole entry): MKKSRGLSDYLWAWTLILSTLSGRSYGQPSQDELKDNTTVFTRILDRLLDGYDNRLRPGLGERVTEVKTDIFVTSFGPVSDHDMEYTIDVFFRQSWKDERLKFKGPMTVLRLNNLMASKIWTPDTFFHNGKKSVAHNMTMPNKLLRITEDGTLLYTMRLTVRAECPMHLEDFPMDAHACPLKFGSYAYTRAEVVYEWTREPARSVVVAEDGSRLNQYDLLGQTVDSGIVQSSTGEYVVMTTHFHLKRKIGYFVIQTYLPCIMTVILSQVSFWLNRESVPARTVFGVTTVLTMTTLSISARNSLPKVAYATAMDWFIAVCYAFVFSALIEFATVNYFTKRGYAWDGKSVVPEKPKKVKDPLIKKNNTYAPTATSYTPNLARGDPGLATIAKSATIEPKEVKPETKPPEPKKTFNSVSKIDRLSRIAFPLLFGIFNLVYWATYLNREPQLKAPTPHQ
Sequence of Delta-type opioid receptor (P41143 whole entry): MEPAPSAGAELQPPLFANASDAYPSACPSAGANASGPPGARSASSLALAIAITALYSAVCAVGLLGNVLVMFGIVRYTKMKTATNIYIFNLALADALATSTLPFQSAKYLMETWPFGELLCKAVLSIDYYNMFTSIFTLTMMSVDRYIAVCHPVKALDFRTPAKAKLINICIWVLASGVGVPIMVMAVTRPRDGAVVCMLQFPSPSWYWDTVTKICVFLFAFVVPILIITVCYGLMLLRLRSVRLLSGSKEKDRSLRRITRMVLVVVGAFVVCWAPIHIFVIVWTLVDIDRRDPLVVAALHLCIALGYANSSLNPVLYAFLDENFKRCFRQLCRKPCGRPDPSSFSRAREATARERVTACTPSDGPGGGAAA
Sequence of Motilin receptor (O43193 whole entry): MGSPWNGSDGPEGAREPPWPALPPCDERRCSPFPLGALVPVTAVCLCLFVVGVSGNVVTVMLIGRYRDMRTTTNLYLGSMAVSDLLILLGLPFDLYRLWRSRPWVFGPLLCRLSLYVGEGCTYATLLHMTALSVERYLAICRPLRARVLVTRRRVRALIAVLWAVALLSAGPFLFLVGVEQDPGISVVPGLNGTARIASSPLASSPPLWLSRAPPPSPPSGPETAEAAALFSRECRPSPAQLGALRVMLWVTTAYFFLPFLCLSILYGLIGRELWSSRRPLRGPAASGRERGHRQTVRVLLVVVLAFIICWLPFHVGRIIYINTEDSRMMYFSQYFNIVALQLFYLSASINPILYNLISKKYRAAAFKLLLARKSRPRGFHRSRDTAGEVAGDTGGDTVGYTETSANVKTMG
Sequence of Vasopressin V2 receptor (P30518 whole entry): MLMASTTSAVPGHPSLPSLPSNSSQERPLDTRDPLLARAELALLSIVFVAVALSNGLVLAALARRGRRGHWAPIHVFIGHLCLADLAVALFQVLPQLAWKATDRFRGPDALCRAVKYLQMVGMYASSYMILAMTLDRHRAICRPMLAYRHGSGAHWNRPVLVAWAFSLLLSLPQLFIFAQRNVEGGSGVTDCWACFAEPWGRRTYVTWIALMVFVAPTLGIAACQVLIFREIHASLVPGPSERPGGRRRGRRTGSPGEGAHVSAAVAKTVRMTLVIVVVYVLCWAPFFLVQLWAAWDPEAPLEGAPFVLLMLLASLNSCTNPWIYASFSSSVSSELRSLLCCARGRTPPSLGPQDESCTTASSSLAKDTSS
Sequence of Sodium-dependent dopamine transporter (Q01959 whole entry): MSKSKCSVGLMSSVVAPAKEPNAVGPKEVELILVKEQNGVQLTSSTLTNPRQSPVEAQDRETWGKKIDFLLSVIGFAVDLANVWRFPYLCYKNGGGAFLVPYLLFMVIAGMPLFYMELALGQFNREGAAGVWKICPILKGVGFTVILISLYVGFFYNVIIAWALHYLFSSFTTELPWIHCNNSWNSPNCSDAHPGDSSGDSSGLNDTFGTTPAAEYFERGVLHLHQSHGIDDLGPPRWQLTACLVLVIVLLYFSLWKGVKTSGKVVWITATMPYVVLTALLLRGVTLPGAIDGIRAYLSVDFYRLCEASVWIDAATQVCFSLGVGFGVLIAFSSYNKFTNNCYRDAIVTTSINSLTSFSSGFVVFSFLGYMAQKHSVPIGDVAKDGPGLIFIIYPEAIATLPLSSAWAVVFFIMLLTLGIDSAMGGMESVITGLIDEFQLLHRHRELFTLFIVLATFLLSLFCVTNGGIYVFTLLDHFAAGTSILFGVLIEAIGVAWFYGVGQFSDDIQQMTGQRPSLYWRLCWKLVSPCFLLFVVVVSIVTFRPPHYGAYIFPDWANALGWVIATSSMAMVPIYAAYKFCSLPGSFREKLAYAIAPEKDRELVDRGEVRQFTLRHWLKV

Consider `C[C@]1(COc2ccc(N3CCC(Oc4ccc(OC(F)(F)F)cc4)CC3)cc2)Cn2cc([N+](=O)[O-])nc2O1`, for which the AC50 (in general, the concentration giving half of the maximal activity seen) in test [1] is over 10 µM; in [2], over 10 µM; in test [3], over 30 µM; at Vasopressin V2 receptor it was over 30 µM; in test [4], over 30 µM; in [5], over 30 µM. Further, the AC50 is over 30 µM in [6]; over 10 µM on Motilin receptor; over 10 µM in test [7]; over 30 µM in test [8]; over 30 µM at Thromboxane A2 receptor; over 30 µM in test [9].
